In this data set the test system is mock-infected MT-4 cells. Nature of the data set: Compound toxicity in mock-infected MT-4 cells (WST-1 assay). The class given is cell-based. Particulars: four days incubation, read-out: TC50 (concentration of compound that results in death of 50% of the host cells). How it is done:
The HTLV-1 transformed T cell line, MT-4, is highly susceptible to HIV-1 infection. Anti-HIV-1 agents were evaluated in this target cell line by protection from the HIV-induced cytopathic effect. In this assay, viability of both HIV-1 and mock-infected cells was assessed in a […] assay that monitors the ability of metabolically-active cells to reduce the tetrazolium salt WST-1. Cytoprotection by antiviral compounds is indicated by the positive readout of increased WST-1 cleavage.
Briefly, exponentially growing MT-4 cells were mock-infected or batch-infected with the HIV-1 laboratory strain, NL4-3, at a multiplicity of infection of 0.0005. Following a two hour infection, the cells were washed to remove unbound virus and plated in the presence of increasing concentrations of compound. After four days incubation, cytoprotection in the infected cells and compound toxicity in mock-infected cells were analyzed using the WST-1 assay.
A general note: Tetrazolium dyes change colour on reduction, which living cells bring about.

In the case of `C=C(C)[C@@H]1CC[C@]2(C(=O)NCc3ccccc3C(=O)O)CC[C@]3(C)[C@H](CC[C@@H]4[C@@]5(C)CC[C@H](OC(=O)CC(C)(C)C(=O)O)C(C)(C)[C@@H]5CC[C@]43C)[C@@H]12` [Compound 39], the CC50 is ~6.3 µM.
The figure for `C=C(C)[C@@H]1CC[C@]2(C(=O)NCc3ccc(C(=O)O)cc3)CC[C@]3(C)[C@H](CC[C@@H]4[C@@]5(C)CC[C@H](OC(=O)CC(C)(C)C(=O)O)C(C)(C)[C@@H]5CC[C@]43C)[C@@H]12` [Compound 37] is ~7.7 µM.
